Here are results for two compounds from patent publication US20170101438A1, “COSMETIC OR PHARMACEUTICAL METHODS FOR THE TREATMENT AND/OR CARE OF THE SKIN AND/OR HAIR USING TRIPEPTIDES CAPABLE OF STIMULATING CYCLIC ADENOSINE MONOPHOSPHATE SYNTHESIS” (Lipotec, S.A., priority 2009, published 2017).

Assay [1] concerns human G361 melanocyte cell line. The assay is described as follows: cAMP synthesis stimulation assay (competitive ELISA). In kind it is cell-based. Particulars: G361 cells, normalized to average basal cAMP values. How it is done:
cAMP synthesis stimulation was assessed in the human G361 melanocyte cell line in the presence of the peptides of the invention. The cells were seeded (10^6 cells/plate 25 cm^2) and incubated for 24 hours in McCoy's complete medium, after which the peptides were added to 10 μM and were incubated for another 24 hours. 40 μM forskolin was used as a positive control. The cells were centrifuged and the supernatants were collected, and the cAMP levels were determined by carrying out a competitive ELISA assay following the protocols of the commercial kit (Cayman, Ref 0.581001)

The test system is the same in assay [2]. The assay is described as follows: Melanogenesis stimulation (melanin extracted, absorbance at 470 nm). In kind it is cell-based. The note with it: 4 days, G361 cells, normalized to number of cells. As for the experimental part: A human G361 melanocyte cell line was incubated for 4 days on a 12-well plate in presence of the peptide at various concentrations, after which the cells were trypsinized, the melanin was extracted and was quantified by measuring the absorbance at 470 nm in a spectrophotometer. The values obtained were normalized with regards to the number of cells. The concentration of melanin was determined in pg/cell using a standard regression analysis obtained with synthetic melanin at known concentrations.

`C=C[C@@]1(C)CC(=O)[C@]2(O)[C@@]3(C)[C@@H](O)CCC(C)(C)[C@@H]3[C@H](O)[C@H](OC(C)=O)[C@@]2(C)O1` [Forskolin, reference compound] came in with a cAMP increase in assay [1] (positive control 40 μM) of 117%.
As to Palm-L-Tyr-L-Tyr-L-Met-NH2, the cAMP increase in assay [1] (peptide 10 μM, 24 hours) amounted to 57%. The figures for the Melanin synthesis stimulation in assay [2] (10 μM), in assay [2] (50 μM) and in assay [2] (100 μM) were 64%, 79% and 138%, respectively.
